According to patent US20200199136A1, “PIKFYVE KINASE INHIBITORS” (ACURASTEM INC., priority 2017, published 2020):

These compounds were tested against PIKFYVE (Homo sapiens, UniProt Q9Y2I7) (assay: PIKFYVE assay (luciferase ADP-Glo kinase assay, Promega)).
Chain of PIKFYVE (Q9Y2I7 whole entry): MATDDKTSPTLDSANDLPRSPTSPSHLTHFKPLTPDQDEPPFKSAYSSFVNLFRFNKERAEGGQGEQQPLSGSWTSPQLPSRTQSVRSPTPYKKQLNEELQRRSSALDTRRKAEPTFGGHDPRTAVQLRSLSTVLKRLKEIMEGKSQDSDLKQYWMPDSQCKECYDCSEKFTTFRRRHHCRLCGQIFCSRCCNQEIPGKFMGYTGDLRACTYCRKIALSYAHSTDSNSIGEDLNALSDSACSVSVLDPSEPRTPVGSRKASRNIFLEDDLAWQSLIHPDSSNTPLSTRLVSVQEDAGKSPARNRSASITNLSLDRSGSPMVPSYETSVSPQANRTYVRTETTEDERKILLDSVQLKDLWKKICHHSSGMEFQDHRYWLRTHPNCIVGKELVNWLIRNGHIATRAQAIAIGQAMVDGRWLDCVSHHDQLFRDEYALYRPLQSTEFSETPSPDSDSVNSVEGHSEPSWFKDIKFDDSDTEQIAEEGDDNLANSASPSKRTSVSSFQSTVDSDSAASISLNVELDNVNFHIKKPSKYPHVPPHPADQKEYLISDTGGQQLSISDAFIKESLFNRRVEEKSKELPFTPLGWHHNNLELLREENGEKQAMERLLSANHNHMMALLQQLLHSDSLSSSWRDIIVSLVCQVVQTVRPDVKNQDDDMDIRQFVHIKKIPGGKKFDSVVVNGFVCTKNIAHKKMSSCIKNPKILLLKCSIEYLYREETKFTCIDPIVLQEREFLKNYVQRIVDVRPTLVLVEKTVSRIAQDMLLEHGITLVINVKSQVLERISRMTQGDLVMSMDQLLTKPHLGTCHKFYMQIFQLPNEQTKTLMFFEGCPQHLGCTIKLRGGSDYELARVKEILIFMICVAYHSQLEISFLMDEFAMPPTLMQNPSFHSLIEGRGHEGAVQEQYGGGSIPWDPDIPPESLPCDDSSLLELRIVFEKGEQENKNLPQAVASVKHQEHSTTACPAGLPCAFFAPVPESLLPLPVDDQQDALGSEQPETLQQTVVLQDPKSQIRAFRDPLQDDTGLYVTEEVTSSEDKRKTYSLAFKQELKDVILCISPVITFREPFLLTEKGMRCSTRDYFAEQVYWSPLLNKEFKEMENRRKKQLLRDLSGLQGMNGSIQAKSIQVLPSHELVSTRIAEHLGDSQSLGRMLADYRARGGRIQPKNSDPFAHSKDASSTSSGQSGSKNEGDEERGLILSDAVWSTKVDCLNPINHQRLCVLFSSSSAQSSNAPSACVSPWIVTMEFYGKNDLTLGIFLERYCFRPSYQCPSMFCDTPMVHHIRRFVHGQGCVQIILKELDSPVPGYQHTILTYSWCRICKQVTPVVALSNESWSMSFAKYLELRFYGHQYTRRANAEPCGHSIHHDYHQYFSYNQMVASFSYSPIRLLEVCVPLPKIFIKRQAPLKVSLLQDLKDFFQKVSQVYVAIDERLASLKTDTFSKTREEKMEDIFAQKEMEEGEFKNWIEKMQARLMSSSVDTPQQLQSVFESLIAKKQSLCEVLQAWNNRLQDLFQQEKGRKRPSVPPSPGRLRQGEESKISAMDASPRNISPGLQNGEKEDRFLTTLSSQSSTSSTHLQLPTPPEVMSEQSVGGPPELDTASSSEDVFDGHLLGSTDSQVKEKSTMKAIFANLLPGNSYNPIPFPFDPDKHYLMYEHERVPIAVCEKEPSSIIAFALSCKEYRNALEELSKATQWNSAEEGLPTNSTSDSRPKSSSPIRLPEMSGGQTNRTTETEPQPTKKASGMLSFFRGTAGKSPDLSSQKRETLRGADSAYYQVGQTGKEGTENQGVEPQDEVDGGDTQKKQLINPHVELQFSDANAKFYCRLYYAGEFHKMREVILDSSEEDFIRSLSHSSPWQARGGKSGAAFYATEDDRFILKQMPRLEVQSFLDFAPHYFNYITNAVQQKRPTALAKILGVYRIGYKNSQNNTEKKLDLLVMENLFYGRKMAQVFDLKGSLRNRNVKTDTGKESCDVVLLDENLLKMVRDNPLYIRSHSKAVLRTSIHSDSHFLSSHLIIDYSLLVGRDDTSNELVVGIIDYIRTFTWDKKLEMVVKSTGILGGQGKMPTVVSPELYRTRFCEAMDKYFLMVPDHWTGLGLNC
Assay type: biochemical
Procedure: The activity of Compounds 1-20 was measured using a PIKFYVE assay (luciferase ADP-Glo kinase assay available from Promega Corp. of Madison, Wis.).
Compound `c1ccc(-c2ccn(-c3cc(N4CC[C@H]5OCC[C@H]54)nc(OCCc4ccccn4)n3)n2)cc1` [Compound 4, (3aR,6aR)-4-(6-(3-phenyl-1H-pyrazol-1-yl)-2-(2-(pyridin-2-yl)ethoxy)pyrimidin-4-yl)hexahydro-2H-furo[3,2-b]pyrrole] has an IC50 of 101 to 1000 nM. For `Cc1cccc(-c2ccn(-c3cc(C4CCOC4)nc(OCC4CCCO4)n3)n2)c1` (stereo not shown) [Compound 17, 2-((tetrahydrofuran-2-yl)methoxy)-4-(tetrahydrofuran-3-yl)-6-(3-(m-tolyl)-1H-pyrazol-1-yl)pyrimidine], the IC50 was 5 to 100 nM. In the case of `c1ccc(-c2cn(-c3cc(N4CCOCC4)nc(OCCc4ccccn4)n3)cn2)cc1` [Compound 10, 4-(6-(4-phenyl-1H-imidazol-1-yl)-2-(2-(pyridin-2-yl)ethoxy)pyrimidin-4-yl)morpholine], the IC50 is reported as 1000 to 10000 nM. Compound `Cc1cccc(-c2csc(-c3cc(N4CCOCC4)nc(OCC4CCCO4)n3)n2)c1` (stereo not shown) [Compound 12, 4-(2-((tetrahydrofuran-2-yl)methoxy)-6-(4-(m-tolyl)thiazol-2-yl)pyrimidin-4-yl)morpholine] has an IC50 of 5 to 100 nM. `Cc1cccc(-n2ccc(-c3cc(N4CCOCC4)nc(OCC4CCCO4)n3)n2)c1` (stereo not shown) [Compound 13, 4-(2-((tetrahydrofuran-2-yl)methoxy)-6-(1-(m-tolyl)-1H-pyrazol-3-yl)pyrimidin-4-yl)morpholine] showed an IC50 of 5 to 100 nM. For `COC1CCN(c2cc(-n3ccc(-c4cccc(C)c4)n3)nc(OCC3CCCO3)n2)C1` (stereo not shown) [Compound 15, 4-(3-methoxypyrrolidin-1-yl)-2-((tetrahydrofuran-2-yl)methoxy)-6-(3-(m-tolyl)-1H-pyrazol-1-yl)pyrimidine], the IC50 was 1000 to 10000 nM. In the case of `COc1cccc(-c2ccn(-c3cc(N4CCOCC4)nc(OCC4CCCO4)n3)n2)c1` (stereo not shown) [Compound 2, 4-(6-(3-(3-methoxyphenyl)-1H-pyrazol-1-yl)-2-((tetrahydrofuran-2-yl)methoxy)pyrimidin-4-yl)morpholine], the IC50 is reported as less than 5 nM. With `COc1cccc(-c2ccn(-c3cc(N4CCOCC4)nc(OCCc4scnc4C)n3)n2)c1` [Compound 7, 4-(6-(3-(3-methoxyphenyl)-1H-pyrazol-1-yl)-2-(2-(4-methylthiazol-5-yl)ethoxy)pyrimidin-4-yl)morpholine] the IC50 was less than 5 nM. In the case of `Cc1cccc(-c2csc(-c3cc(N4CC[C@H]5OCC[C@H]54)nc(OCC4CCCO4)n3)n2)c1` (stereo partly drawn) [Compound 11, (3aR,6aR)-4-(2-((tetrahydrofuran-2-yl)methoxy)-6-(4-(m-tolyl)thiazol-2-yl)pyrimidin-4-yl)hexahydro-2H-furo[3,2-b]pyrrole], the IC50 is reported as 101 to 1000 nM. Work on `COc1cccc(-c2ccn(-c3cc(N4CC[C@H]5OCC[C@H]54)nc(OCC4CCCO4)n3)n2)c1` (stereo partly drawn) [Compound 1, (3aR,6aR)-4-(6-(3-(3-methoxyphenyl)-1H-pyrazol-1-yl)-2-((tetrahydrofuran-2-yl)methoxy)pyrimidin-4-yl)hexahydro-2H-furo[3,2-b]pyrrole] yielded an IC50 of 5 to 100 nM. Work on `COc1cccc(-c2ccn(-c3cc(N4CC[C@H]5OCC[C@H]54)nc(OCCc4ccccn4)n3)n2)c1` [Compound 16, (3aR,6aR)-4-(6-(3-(3-methoxyphenyl)-1H-pyrazol-1-yl)-2-(2-(pyridin-2-yl)ethoxy)pyrimidin-4-yl)hexahydro-2H-furo[3,2-b]pyrrole] yielded an IC50 of 101 to 1000 nM. Work on `COc1cccc(-c2ccn(-c3cc(N4CC[C@H]5OCC[C@H]54)nc(OCCc4scnc4C)n3)n2)c1` [Compound 6, (3aR,6aR)-4-(6-(3-(3-methoxyphenyl)-1H-pyrazol-1-yl)-2-(2-(4-methylthiazol-5-yl)ethoxy)pyrimidin-4-yl)hexahydro-2H-furo[3,2-b]pyrrole] yielded an IC50 of 5 to 100 nM. Compound `COc1cccc(-c2ccn(-c3cc(N4CC[C@H]5OCC[C@H]54)nc(OCCC(O)CO)n3)n2)c1` (stereo partly drawn) [Compound 8, 4-((4-((3aR,6aR)-hexahydro-4H-furo[3,2-b]pyrrol-4-yl)-6-(3-(3-methoxyphenyl)-1H-pyrazol-1-yl)pyrimidin-2-yl)oxy)butane-1,2-diol] has an IC50 of 5 to 100 nM. `COc1cccc(-c2ccn(-c3cc(N4CCOCC4)nc(OCCC(O)CO)n3)n2)c1` (stereo not shown) [Compound 9, 4-((4-(3-(3-methoxyphenyl)-1H-pyrazol-1-yl)-6-morpholinopyrimidin-2-yl)oxy)butane-1,2-diol] was tested, and the IC50 was less than 5 nM. `Cc1cccc(-c2ccn(-c3cc(N4CCCOCC4)nc(OCC4CCCO4)n3)n2)c1` (stereo not shown) [Compound 14, 4-(2-((tetrahydrofuran-2-yl)methoxy)-6-(3-(m-tolyl)-1H-pyrazol-1-yl)pyrimidin-4-yl)-1,4-oxazepane] showed an IC50 of 101 to 1000 nM. Work on `COc1cccc(-c2ccn(-c3cc(N4CC[C@H]5OCC[C@H]54)nc(OCCO)n3)n2)c1` [Compound 5, 2-((4-((3aR,6aR)-hexahydro-4H-furo[3,2-b]pyrrol-4-yl)-6-(3-(3-methoxyphenyl)-1H-pyrazol-1-yl)pyrimidin-2-yl)oxy)ethan-1-ol] yielded an IC50 of 101 to 1000 nM. `Cc1cccc(-c2ccn(-c3cc(N4CC[C@H]5OCC[C@H]54)nc(CCc4ncccn4)n3)n2)c1` [Compound 19] showed an IC50 of 5 to 100 nM. Work on `Cc1cccc(-c2ccn(-c3cc(N4CCOCC4CO)nc(CCC4CCCO4)n3)n2)c1` (stereo not shown) [Compound 20, (4-(2-(2-(tetrahydrofuran-2-yl)ethyl)-6-(3-(m-tolyl)-1H-pyrazol-1-yl)pyrimidin-4-yl)morpholin-3-yl)methanol] yielded an IC50 of 5 to 100 nM. `COc1cccc(-c2ccn(-c3cc(N4CCOCC4)nc(OCCC4CCOCC4)n3)n2)c1` [Compound 3, 4-(6-(3-(3-methoxyphenyl)-1H-pyrazol-1-yl)-2-(2-(tetrahydro-2H-pyran-4-yl)ethoxy)pyrimidin-4-yl)morpholine] showed an IC50 of less than 5 nM.
